In US20090012103A1, “SUBSTITUTED HETEROCYCLIC COMPOUNDS” (priority 2007, published 2009) one finds inhibition data, which are given here for 35 compounds.

Molecules are shown by their SMILES.

The target of this assay is wild-type human cardiac sodium channel, hNav1.5 (Homo sapiens, UniProt Q14524). The assay can be described thus: Late INa screening assay (late sodium current, PatchXpress whole cell patch clamp). The assay is classed as cell-based. As to conditions: compound at 10 μM; read-out: Late INa % blk.
wild-type human cardiac sodium channel, hNav1.5, sequence (Q14524 whole entry): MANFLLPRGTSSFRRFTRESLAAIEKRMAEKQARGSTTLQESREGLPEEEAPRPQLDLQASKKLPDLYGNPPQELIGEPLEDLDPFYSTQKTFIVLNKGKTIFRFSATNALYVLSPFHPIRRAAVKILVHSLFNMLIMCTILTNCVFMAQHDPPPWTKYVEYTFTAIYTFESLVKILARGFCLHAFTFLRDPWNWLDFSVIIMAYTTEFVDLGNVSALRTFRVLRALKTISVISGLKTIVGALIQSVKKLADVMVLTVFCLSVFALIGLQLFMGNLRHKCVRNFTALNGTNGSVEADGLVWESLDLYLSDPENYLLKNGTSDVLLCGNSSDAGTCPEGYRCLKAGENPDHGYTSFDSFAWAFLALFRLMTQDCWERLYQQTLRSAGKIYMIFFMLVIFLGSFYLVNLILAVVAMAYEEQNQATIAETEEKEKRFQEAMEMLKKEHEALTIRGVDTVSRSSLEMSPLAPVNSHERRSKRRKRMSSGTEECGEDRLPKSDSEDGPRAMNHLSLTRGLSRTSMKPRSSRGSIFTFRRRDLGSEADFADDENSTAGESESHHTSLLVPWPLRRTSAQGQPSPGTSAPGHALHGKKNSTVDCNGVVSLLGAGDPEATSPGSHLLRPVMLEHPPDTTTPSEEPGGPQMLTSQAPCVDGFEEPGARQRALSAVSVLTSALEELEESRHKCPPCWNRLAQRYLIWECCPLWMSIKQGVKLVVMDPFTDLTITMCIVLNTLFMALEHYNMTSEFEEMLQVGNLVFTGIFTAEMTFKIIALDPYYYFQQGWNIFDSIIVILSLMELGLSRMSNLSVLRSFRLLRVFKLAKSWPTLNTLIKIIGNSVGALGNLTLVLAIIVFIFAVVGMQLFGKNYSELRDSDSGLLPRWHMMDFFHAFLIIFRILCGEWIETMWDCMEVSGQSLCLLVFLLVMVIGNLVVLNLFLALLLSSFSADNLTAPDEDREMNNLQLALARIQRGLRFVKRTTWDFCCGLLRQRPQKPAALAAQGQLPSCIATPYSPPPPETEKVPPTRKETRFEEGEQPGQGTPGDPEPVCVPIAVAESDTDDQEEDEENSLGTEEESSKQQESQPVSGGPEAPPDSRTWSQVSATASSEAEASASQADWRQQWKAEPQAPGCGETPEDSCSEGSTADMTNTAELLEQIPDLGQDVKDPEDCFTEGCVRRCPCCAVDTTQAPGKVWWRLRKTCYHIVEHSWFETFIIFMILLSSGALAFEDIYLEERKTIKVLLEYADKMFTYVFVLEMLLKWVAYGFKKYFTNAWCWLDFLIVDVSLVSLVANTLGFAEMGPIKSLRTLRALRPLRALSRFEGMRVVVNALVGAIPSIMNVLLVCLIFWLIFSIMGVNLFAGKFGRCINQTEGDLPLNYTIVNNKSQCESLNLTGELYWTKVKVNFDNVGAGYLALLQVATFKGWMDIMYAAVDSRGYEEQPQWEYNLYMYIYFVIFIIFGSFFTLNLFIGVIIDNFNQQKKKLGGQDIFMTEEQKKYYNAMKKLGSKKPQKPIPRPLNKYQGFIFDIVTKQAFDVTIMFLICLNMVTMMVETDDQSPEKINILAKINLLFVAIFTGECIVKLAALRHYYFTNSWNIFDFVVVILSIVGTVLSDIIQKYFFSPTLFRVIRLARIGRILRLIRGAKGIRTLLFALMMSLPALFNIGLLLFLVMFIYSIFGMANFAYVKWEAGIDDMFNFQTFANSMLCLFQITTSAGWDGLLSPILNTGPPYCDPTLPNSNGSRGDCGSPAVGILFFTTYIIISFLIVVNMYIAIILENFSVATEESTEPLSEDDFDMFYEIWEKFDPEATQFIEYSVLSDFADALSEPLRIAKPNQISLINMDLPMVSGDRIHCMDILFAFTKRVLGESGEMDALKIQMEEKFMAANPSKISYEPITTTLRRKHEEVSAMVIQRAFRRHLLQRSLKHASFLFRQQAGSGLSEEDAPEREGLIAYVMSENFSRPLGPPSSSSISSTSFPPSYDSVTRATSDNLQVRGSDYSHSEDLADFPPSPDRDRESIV
`CC1=C(C(=O)OCc2cccc(C#N)c2)C(c2cccc3ccccc23)n2nnnc2N1` (centres unmarked) [PT-278, 3-cyanobenzyl 5-methyl-7-(naphthalen-1-yl)-4,7-dihydrotetrazolo[1,5-a]pyrimidine-6-carboxylate]: the inhibition at 10 µM turned out to be 63.9%. To `CC1=C(C(=O)OCc2ccc(Cn3cccn3)cc2)C(c2ccccc2OCc2ccccc2)n2nnnc2N1` (centres unmarked) [PT-282, 4-((1H-pyrazol-1-yl)methyl)benzyl 7-(2-(benzyloxy)phenyl)-5-methyl-4,7-dihydrotetrazolo[1,5-a]pyrimidine-6-carboxylate] belongs 30.2%; to `CC1=C(C(=O)OCc2ccc(Cn3cccn3)cc2)C(c2ccc(N(C)C)c3ccccc23)n2nnnc2N1` (centres unmarked) [PT-283, 4-((1H-pyrazol-1-yl)methyl)benzyl 7-(4-(dimethylamino)naphthalen-1-yl)-5-methyl-4,7-dihydrotetrazolo[1,5-a]pyrimidine-6-carboxylate], 11.4%; to `COc1ccc(C2C(C(=O)OCc3ccc(Cn4cccn4)cc3)=C(C)Nc3nnnn32)c2ccccc12` (centres unmarked) [PT-284, 4-((1H-pyrazol-1-yl)methyl)benzyl 7-(4-methoxynaphthalen-1-yl)-5-methyl-4,7-dihydrotetrazolo[1,5-a]pyrimidine-6-carboxylate], 49.5%. Regarding `CCOC(=O)C1=C(C)Nc2nnnn2C1c1ccccc1OCc1ccc(C(=O)O)cc1` (centres unmarked) [PT-285, 4-((2-(6-(ethoxycarbonyl)-5-methyl-4,7-dihydrotetrazolo[1,5-a]pyrimidin-7-yl)phenoxy)methyl)benzoic acid], the inhibition at 10 µM is -2.2%. As for `CCOC(=O)C1=C(C)Nc2nnnn2C1c1cccc(OCc2ccc(C(=O)O)cc2)c1` (centres unmarked) [PT-286, 4-((3-(6-(ethoxycarbonyl)-5-methyl-4,7-dihydrotetrazolo[1,5-a]pyrimidin-7-yl)phenoxy)methyl)benzoic acid], the inhibition at 10 µM was determined as 8.8%. To `CC1=C(C(=O)OCc2ccc(-n3cccn3)cc2)C(c2cccc3ccccc23)n2nnnc2N1` (centres unmarked) [PT-289, 4-(1H-pyrazol-1-yl)benzyl 5-methyl-7-(naphthalen-1-yl)-4,7-dihydrotetrazolo[1,5-a]pyrimidine-6-carboxylate] belongs 3.3%; to `CC1=C(C(=O)OCCOc2ccc(C(=O)O)cc2)C(c2cccc3ccccc23)n2nnnc2N1` (centres unmarked) [PT-290, 4-(2-(5-methyl-7-(naphthalen-1-yl)-4,7-dihydrotetrazolo[1,5-a]pyrimidine-6-carbonyloxy)ethoxy)benzoic acid], 14.4%; to `CCOC(=O)C1=C(C)Nc2nnnn2C1c1ccccc1Oc1ccc(C(=O)O)cc1` (centres unmarked) [PT-291, 4-(2-(6-(ethoxycarbonyl)-5-methyl-4,7-dihydrotetrazolo[1,5-a]pyrimidin-7-yl)phenoxy)benzoic acid], 15.2%. To `CCOC(=O)C1=C(C)Nc2nnnn2C1c1sccc1-c1ccc(C(=O)O)cc1` (centres unmarked) [PT-292, 4-(2-(6-(ethoxycarbonyl)-5-methyl-4,7-dihydrotetrazolo[1,5-a]pyrimidin-7-yl)thiophen-3-yl)benzoic acid] belongs 18.7%; to `CC1=C(C(=O)OCC2CC2)C(c2c(-c3ccc(C(=O)O)cc3)sc3ccccc23)n2nnnc2N1` (centres unmarked) [PT-293, 4-(3-(6-((cyclopropylmethoxy)carbonyl)-5-methyl-4,7-dihydrotetrazolo[1,5-a]pyrimidin-7-yl)benzo[b]thiophen-2-yl)benzoic acid], 7.7%; to `CCOC(=O)C1=C(C)Nc2nnnn2C1c1cccc(Oc2ccc(C(=O)O)cc2)c1` (centres unmarked) [PT-295, 4-(3-(6-(ethoxycarbonyl)-5-methyl-4,7-dihydrotetrazolo[1,5-a]pyrimidin-7-yl)phenoxy)benzoic acid], 7%.

Consider `COC(=O)C1=C(C)Nc2nnnn2C1c1c(-c2ccc(C(=O)O)cc2)sc2ccccc12` (centres unmarked) [PT-296, 4-(3-(6-(methoxycarbonyl)-5-methyl-4,7-dihydrotetrazolo[1,5-a]pyrimidin-7-yl)benzo[b]thiophen-2-yl)benzoic acid], for which the inhibition at 10 µM was determined as 13.3%. Then `CC1=C(C(=O)N2CCN(c3ccc(C(=O)O)cc3)CC2)C(c2cccc3ccccc23)C2=C(CCCC2=O)N1` (centres unmarked) [PT-297, 4-(4-(2-methyl-4-(naphthalen-1-yl)-5-oxo-1,4,5,6,7,8-hexahydroquinoline-3-carbonyl)piperazin-1-yl)benzoic acid], with 4.9%; and `CC1=C(C(=O)OCc2ccccc2)C(c2ccc(C(=O)O)cc2)n2nnnc2N1` (centres unmarked) [PT-299, 4-(6-(benzyloxycarbonyl)-5-methyl-4,7-dihydrotetrazolo[1,5-a]pyrimidin-7-yl)benzoic acid], with 6.7%; and `CC1=C(C(=O)OCc2ccccc2)C(c2ccc(B(O)O)cc2)n2nnnc2N1` (centres unmarked) [PT-300, 4-(6-(benzyloxycarbonyl)-5-methyl-4,7-dihydrotetrazolo[1,5-a]pyrimidin-7-yl)phenylboronic acid], with 14.4%. Then `O=C1OCc2nc3[nH]ncc3c(-c3cccc4ccccc34)c21` [PT-301, 4-(naphthalen-1-yl)-1H-furo[3,4-e]pyrazolo[3,4-b]pyridin-5(7H)-one], with 21.6%. Take `O=C1OCc2nc3c(cnn3-c3ccccc3)c(-c3cccc4ccccc34)c21` [PT-302, 4-(naphthalen-1-yl)-1-phenyl-1H-furo[3,4-e]pyrazolo[3,4-b]pyridin-5(7H)-one]: the inhibition at 10 µM was 50.4%. Turning to `COc1cc(Cl)ccc1COC(=O)C1=C(C)Nc2nnnn2C1c1cccc2ccccc12` (centres unmarked) [PT-304, 4-chloro-2-methoxybenzyl 5-methyl-7-(naphthalen-1-yl)-4,7-dihydrotetrazolo[1,5-a]pyrimidine-6-carboxylate], the inhibition at 10 µM came out at 63%. As to `COc1cc(Cl)ccc1COC(=O)C1=C(C)Nc2nnnn2C1c1ccccc1Br` (centres unmarked) [PT-308, 4-chloro-2-methoxybenzyl 7-(2-bromophenyl)-5-methyl-4,7-dihydrotetrazolo[1,5-a]pyrimidine-6-carboxylate], the inhibition at 10 µM came to 53.4%. `CC1=C(C(=O)NNC(=O)Cc2ccccc2)C(c2cccc3ccccc23)n2nnnc2N1` (centres unmarked) [PT-309, 5-methyl-7-(naphthalen-1-yl)-N′-(2-phenylacetyl)-4,7-dihydrotetrazolo[1,5-a]pyrimidine-6-carbohydrazide]: the inhibition at 10 µM amounted to 8.2%. For `CC1=C(C(=O)NCCc2ccccc2)C(c2cccc3ccccc23)n2nnnc2N1` (centres unmarked) [PT-310, 5-methyl-7-(naphthalen-1-yl)-N-phenethyl-4,7-dihydrotetrazolo[1,5-a]pyrimidine-6-carboxamide], the inhibition at 10 µM came out at 23.6%.

Turning to `CC1=C(C(=O)OCc2ccccc2)C(c2ccc(N(C)C)c3ccccc23)n2ncc(C(=O)O)c2N1` (centres unmarked) [PT-311, 6-(benzyloxycarbonyl)-7-(4-(dimethylamino)naphthalen-1-yl)-5-methyl-4,7-dihydropyrazolo[1,5-a]pyrimidine-3-carboxylic acid], the inhibition at 10 µM is -7.5%. Then `COc1ccc(C2C(C(=O)OCc3ccccc3)=C(C)Nc3c(C(=O)O)cnn32)c2ccccc12` (centres unmarked) [PT-312, 6-(benzyloxycarbonyl)-7-(4-methoxynaphthalen-1-yl)-5-methyl-4,7-dihydropyrazolo[1,5-a]pyrimidine-3-carboxylic acid], with 5.2%. In the case of `CC1=C(C(=O)OCc2ccccc2)C(c2ccccc2)c2ccccc2N1` (centres unmarked) [PT-321, benzyl 2-methyl-4-phenyl-1,4-dihydroquinoline-3-carboxylate], the inhibition at 10 µM stood at 48.3%.

For `CC1=C(C(=O)OCc2ccccc2)C(c2ccccc2)C2=C(CCCC2=O)N1` (centres unmarked) [PT-323, benzyl 2-methyl-5-oxo-4-phenyl-1,4,5,6,7,8-hexahydroquinoline-3-carboxylate], the inhibition at 10 µM was determined as 48.9%. For `CC1=C(C(=O)OCc2ccccc2)C(c2cccc3ccccc23)n2nnnc2N1Cc1nnn[nH]1` (centres unmarked) [PT-326, benzyl 4-((1H-tetrazol-5-yl)methyl)-5-methyl-7-(naphthalen-1-yl)-4,7-dihydrotetrazolo[1,5-a]pyrimidine-6-carboxylate], the inhibition at 10 µM amounted to 39.9%. Then `CC1=C(C(=O)OCc2ccccc2)C(c2ccccc2OCc2ccccc2)C2=C(CCCC2=O)N1` (centres unmarked) [PT-328, benzyl 4-(2-(benzyloxy)phenyl)-2-methyl-5-oxo-1,4,5,6,7,8-hexahydroquinoline-3-carboxylate], with 58.1%; and `CC1=C(C(=O)OCc2ccccc2)C(c2ccccc2Br)C2=C(CCCC2=O)N1` (centres unmarked) [PT-329, benzyl 4-(2-bromophenyl)-2-methyl-5-oxo-1,4,5,6,7,8-hexahydroquinoline-3-carboxylate], with 54.9%; and `CC1=C(C(=O)OCc2ccccc2)C(c2ccccc2Br)c2cn[nH]c2N1` (centres unmarked) [PT-330, benzyl 4-(2-bromophenyl)-6-methyl-4,7-dihydro-1H-pyrazolo[3,4-b]pyridine-5-carboxylate], with 21.2%.

Take `CCOC(=O)CN1C(C)=C(C(=O)OCc2ccccc2)C(c2cccc3ccccc23)n2nnnc21` (centres unmarked) [PT-331, benzyl 4-(2-ethoxy-2-oxoethyl)-5-methyl-7-(naphthalen-1-yl)-4,7-dihydrotetrazolo[1,5-a]pyrimidine-6-carboxylate]: the inhibition at 10 µM worked out at 29.6%.

As to `COc1ccc(C2C(C(=O)OCc3ccccc3)=C(C)Nc3[nH]ncc32)c2ccccc12` (centres unmarked) [PT-333, benzyl 4-(4-methoxynaphthalen-1-yl)-6-methyl-4,7-dihydro-1H-pyrazolo[3,4-b]pyridine-5-carboxylate], the inhibition at 10 µM was determined as 13.1%. Then `CC1=C(C(=O)OCc2ccccc2)C(c2c3ccccc3cc3ccccc23)C2=C(CCCC2=O)N1` (centres unmarked) [PT-334, benzyl 4-(anthracen-9-yl)-2-methyl-5-oxo-1,4,5,6,7,8-hexahydroquinoline-3-carboxylate], with 29.9%; and `CC1=C(C(=O)OCc2ccccc2)C(c2cc3ccccc3s2)C2=C(CCCC2=O)N1` (centres unmarked) [PT-335, benzyl 4-(benzo[b]thiophen-2-yl)-2-methyl-5-oxo-1,4,5,6,7,8-hexahydroquinoline-3-carboxylate], with 58.1%. Then `CC1=C(C(=O)OCc2ccccc2)C(c2ccccc2-c2ccccc2)C2=C(CCCC2=O)N1` (centres unmarked) [PT-336, benzyl 4-(biphenyl-2-yl)-2-methyl-5-oxo-1,4,5,6,7,8-hexahydroquinoline-3-carboxylate], with 60.1%.
